Data taken from article PMC3927586, “Protein kinase C-delta inactivation inhibits the proliferation and survival of cancer stem cells in culture and in vivo” (BMC Cancer, 2014).
Like-named read-outs stand apart in the source and are kept apart here.

What was measured:
[1] = target: T1, recombinant PKCα (Homo sapiens, UniProt P17252); experiment: PKC kinase activity assay (Z-lyte), PKCα; format: biochemical
T1 construct: purchased Invitrogen
Procedure: Assays were carried out using recombinant PKCδ or PKCα, (Invitrogen) and the Z-lyte Kinase Assays (Invitrogen) with a “PKC-kinase-specific” peptide substrate. FRET interactions produce a change in fluorescence (ex455/ex520) upon phosphorylation. The kit was used according to the manufacturer’s instructions.

[2] = tested on: PCSC cells; experiment: Cell proliferation (MTT) of pancreatic cancer stem cells; format: cell-based, human; settings: for IC50: Homo sapiens, read-out: IC50 (in culture), growth of PCSC; for IC50 / lowest concentration significantly inhibiting growth of PCSC cultures: 48 hr; for lowest concentration significantly inhibiting growth of PCSC cultures: p ≤ 0.02 vs vehicle
Procedure: Cell proliferation was assessed using an MTT [3-(4,5-dimethylthiazol-2-yl)-2,5-diphenyltetrazolium bromide] assay (Roche, Mannheim, Germany). The number of viable cells growing in a single well on a 96-well microtiter plate was estimated by adding 10 μl of MTT solution (5 mg/ml in phosphate-buffered saline [PBS]). After 4 h of incubation at 37°C, the stain was diluted with 100 μl of dimethyl sulfoxide. The optical densities were quantified at a test wavelength of 570 nm and a reference wavelength of 690 nm on a multiwell spectrophotometer. In some assays, MTS was used as substrate (Promega, Madison, WI), and the absorbance of the product was monitored at 490 nm. Cell enumeration was carried out using a hemocytometer, and viable cells identified by trypan blue exclusion.
Figure 2 Effects of PKCδ inhibitors on human cancer stem cells. (A) PCSC and PrCSC cells at 80% confluence were exposed to rottlerin. DMSO served as vehicle control (Vehicle). After 24 and 72 hr of exposure, cell mass was evaluated by MTT assay. Control values were normalized to 100%. p values for comparison between treatments reached significance at 24 hr of exposure (p≤0.01) for both cell types, and remained significant at 72 hr. (B) PCSC and PrCSC cells at 50% confluence were exposed to rottlerin. Cytotoxicity was evaluated by LDH-release assay. Total maximal LDH release was assigned the arbitrary value of 100% (Control). p values for comparison between effects of treatments on LDH release reached significance at 24 hr of exposure (p<0.01) for both cell types, and remained significant at 72 hr. (C) Effects of PKCδ inhibitor on tumor cell clonogenic capacity. PCSC were exposed to vehicle or rottlerin (10 μM) for 6, 18, 24, or 48 hr. Viable cells were enumerated and re-plated in media without inhibitor, and colony numbers were quantitated 15 days later. p values for comparison of treatment effects on clonogenic capacity reached significance (p=0.005) at 18 hr of exposure and remained significant for all subsequent exposure times. The insert is a photograph of stained colonies on plates. (D) Structures of staurosporine, rottlerin, second-generation (KAM1) and third-generation (BJE6-106) derivatives. (E) PCSC and PrCSC cells at 50% confluence were exposed to KAM1 at the indicated concentrations. DMSO served as vehicle control (Vehicle). Cytotoxicity was evaluated by LDH-release assay, as in panel B. p values for comparison between treatment effects on LDH release reached significance at 24 hr of exposure to 2.5 μM KAM1 for PCSC cells and at 10 μM for PrCSC (p≤0.01), and remained significant at 72 hr for all concentrations of KAM1. Error bars represent SEM.
Figure 3 Effects of a 3rd generation small molecule PKCδ inhibitor on human pancreatic cancer stem cell cultures. PCSC cells were grown to 80% confluence in 96-well plates and then exposed to BJE6-106 at concentrations ranging from 0.1 to 20 μM, or to rottlerin at concentrations ranging from 1 to 20 μM. The corresponding equivalent volume of solvent (DMSO) was used as a vehicle control (Vehicle). After 48 and 72 hr of exposure, cell mass was evaluated by MTT assay. Control values were normalized to 100%. Error bars represent SEM. p values for comparison between vehicle and rottlerin effects on cell number at 48 hr reached significance at 1 μM, and for BJE6-106 at 0.1 μM (p ≤ 0.02), and remained significant at the 72 hr time point.

[3] = tested on: pancreatic cancer stem cells (PCSC); experiment: Tumor spheroid formation, PCSC; format: cell-based, human; settings: added to culture medium, 96 hr, p≤0.001
Procedure: Tumor self-renewing and anchorage-independent spheroids were obtained by culturing breast cancer cells MCF7, Hs587T and MDA231; melanoma cells SBcl2 and FM6; human breast cancer stem cells and pancreatic cancer stem cells in stem cell-selective conditions according to the manufacturer’s instructions (StemCell Technologies, Tukwila, WA). Briefly, cancer and cancer stem cells were propagated in 6-well ultra-low adherent plates (Corning) in Complete MammoCult Medium (Human) by adding 50 mL of MammoCult Proliferation Supplements to 450 mL of MammoCult Basal Medium (StemCell Technologies). The following were added to obtain Complete MammoCult Medium: 4 ug/mL Heparin (StemCell Technologies), 0.48 μg/mL hydrocortisone (StemCell Technologies), 200 U penicillin/ml; and 200 μg streptomycin/ml (Invitrogen).
Figure 4 Effects of PKCδ inhibitors on human tumor cell spheroid formation. […] Tumor spheroids and adherent cells were collected at 96 hr, stained for CD24 and CD44, and analyzed by flow cytometry. […] After 24, 48 and 72 hr of exposure, cell mass was evaluated by MTT assay. […] Viable cells were enumerated and re-plated in media without BJE6-206, and spheroid numbers were quantitated 96 hr later. p values for comparison between vehicle and BJE6-106 effects on spheroid number were significant after 6 hr of exposure (p≤0.02), and remained significant at all time points thereafter. […]

[4] = tested on: FN5; experiment: Tumor spheroid growth, FN5 melanoma; format: cell-based, human; settings: p < 0.001
[5] = tested on: DU145; experiment: Tumor spheroid growth, DU145 prostate cancer; format: cell-based, human; settings: p < 0.001
[6] = tested on: PC3; experiment: Tumor spheroid growth, PC3 prostate cancer; format: cell-based, human; settings: p < 0.001

SMILES	IC50 ([1]; in vitro kinase assay, read-out: PKCα IC50)	IC50 ([2]; MTT)	lowest concentration significantly inhibiting growth of PCSC cultures ([2]; MTT)	effect on formation of spheroids, PCSC [3]	inhibition of tumor spheroid growth, FN5 ([4]; BJE6-106 at 0.5-1.0 μM)	inhibition of tumor spheroid growth, DU145 ([5]; BJE6-106 at 0.5-1.0 μM)	inhibition of tumor spheroid growth, PC3 ([6]; BJE6-106 at 0.5-1.0 μM)	IC50 [1]	growth-inhibitory activity on PCSC at 0.5 μM ([2]; 0.5 μM)	effect on proliferation of PCSC ([2]; MTT, as early as 24 hr after exposure)	inhibition at 10 µM ([4]; Homo sapiens, rottlerin at 10 μM)	inhibition at 10 µM ([5]; Homo sapiens, DU-145, rottlerin at 10 μM)	inhibition at 10 µM ([6]; Homo sapiens, PC-3, rottlerin at 10 μM)
CC1(C)C=Cc2cc(CCn3c4ccccc4c4ccccc43)cc(C=O)c2O1 [BJE6-106, 6-(2-(9H-carbazol-9-yl)ethyl)-2,2-dimethyl-2H-chromene-8-carbaldehyde]	50 µM	~0.5 µM	0.1 µM	very efficiently inhibited	> 99.5%	> 98%	> 96%						
CC(=O)c1c(O)c(C)c(O)c(Cc2c(O)c3c(c(C(=O)/C=C/c4ccccc4)c2O)OC(C)(C)C=C3)c1O [rottlerin, Rottlerin, reference compound]		~3 µM	1 µM	very efficiently inhibited				75 µM	no significant inhibitory activity	significant dose-dependent inhibition of proliferation	> 99.5%	> 98%	> 96%
